According to PubChem BioAssay AID743319 (Broad Institute, 2014):
Calls of active or inactive are those of the source.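 The calls were made as follows: active = fitted curve reaches 200% activation at or below the highest valid dose tested for that compound; inconclusive = flat fit between 30 and 70% activation, or unreliable fit; inactive = the rest.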

Biological target: Endoplasmic reticulum aminopeptidase 2 (Homo sapiens) (UniProt Q6P179)
Test: enhanced ERAP2 Arg-AMC hydrolysis – biochemical, fluorescence plate reader, cherry-picked samples, selectivity assay for selective ERAP1 modulator project, dose response (AID 743319)
Settings: recombinant ERAP2, Arg-AMC cleavage fluorescence, 1 h

Sequence of Endoplasmic reticulum aminopeptidase 2 (Homo sapiens) (Q6P179 whole entry, looked up): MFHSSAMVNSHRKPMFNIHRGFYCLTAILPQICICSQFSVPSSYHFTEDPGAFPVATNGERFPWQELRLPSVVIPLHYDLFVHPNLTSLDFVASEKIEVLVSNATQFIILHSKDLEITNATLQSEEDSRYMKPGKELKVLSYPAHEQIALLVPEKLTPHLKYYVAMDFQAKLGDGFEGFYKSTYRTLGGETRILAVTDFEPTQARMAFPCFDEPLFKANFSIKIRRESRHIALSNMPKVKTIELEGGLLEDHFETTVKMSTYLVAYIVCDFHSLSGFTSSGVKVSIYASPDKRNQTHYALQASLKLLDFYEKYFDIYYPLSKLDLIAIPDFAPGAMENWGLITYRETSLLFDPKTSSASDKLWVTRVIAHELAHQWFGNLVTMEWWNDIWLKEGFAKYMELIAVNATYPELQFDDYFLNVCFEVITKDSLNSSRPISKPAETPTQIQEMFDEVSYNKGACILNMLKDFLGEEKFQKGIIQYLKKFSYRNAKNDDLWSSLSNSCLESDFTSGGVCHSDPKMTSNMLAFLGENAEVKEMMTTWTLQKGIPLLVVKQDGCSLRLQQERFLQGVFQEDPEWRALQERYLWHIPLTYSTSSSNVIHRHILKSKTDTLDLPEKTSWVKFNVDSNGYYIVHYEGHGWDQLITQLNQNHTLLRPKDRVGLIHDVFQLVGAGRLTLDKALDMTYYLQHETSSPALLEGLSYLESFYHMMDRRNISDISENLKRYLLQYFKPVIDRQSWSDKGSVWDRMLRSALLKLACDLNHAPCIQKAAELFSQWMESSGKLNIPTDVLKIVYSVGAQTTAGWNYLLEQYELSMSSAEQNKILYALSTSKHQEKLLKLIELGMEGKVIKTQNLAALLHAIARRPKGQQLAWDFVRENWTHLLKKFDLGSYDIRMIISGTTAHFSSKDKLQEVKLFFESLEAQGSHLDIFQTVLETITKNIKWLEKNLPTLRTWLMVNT

Row | Structure (SMILES) | activation (at 11 µM (top of the series)) | AC200 | other results
1 | C[C@@H]1CCCCO[C@@H](CN(C)C(=O)CCC(F)(F)F)[C@@H](C)CN([C@@H](C)CO)C(=O)c2cc(NS(=O)(=O)c3ccccc3)ccc2O1 | – | – | activation (at 2.6 µM (top of the series)): 14.4% (inactive)
2 | COc1ccc2c3c([nH]c2c1)[C@H](CO)N(Cc1cc(F)ccc1F)CC31CN(C)C1 | 11.2% (inactive) | – | –
3 | COc1ccc(CN(C)C[C@H]2OCCCC[C@@H](C)Oc3ccc(NS(=O)(=O)c4cccs4)cc3C(=O)N([C@H](C)CO)C[C@H]2C)cc1 | 3.67% (inactive) | – | –
4 | C[C@@H]1CCCCO[C@@H](CN(C)CC2CC2)[C@@H](C)CN([C@H](C)CO)C(=O)c2cc(NS(=O)(=O)c3ccc(Cl)cc3)ccc2O1 | 18.4% (inactive) | – | –
5 | COc1ccc(CN(C)C[C@@H]2OCCCC[C@@H](C)Oc3ccc(NS(=O)(=O)c4cccs4)cc3C(=O)N([C@@H](C)CO)C[C@H]2C)cc1 | -1.25% (inactive) | – | –
6 | CCCN1[C@@H]2Cn3c(ccc(/C=C/c4ccccc4)c3=O)[C@H]1[C@@H](C(=O)NCc1ccccn1)[C@@H]2CO | – | 2260 nM | –
7 | CC1CN(Cc2cc(=O)oc3cc(O)c(Cl)cc23)CC(C)O1 (centres undefined) | – | 2520 nM | –
8 | Cc1c(C)c2ccc(O)c(CN3CCCC3)c2oc1=O | – | 2100 nM | –
9 | COc1ccc(CN(C)C[C@@H]2OCCCC[C@H](C)Oc3ccc(NS(=O)(=O)c4cccs4)cc3C(=O)N([C@@H](C)CO)C[C@@H]2C)cc1 | 20.4% (inactive) | – | –
10 | C[C@@H]1CCCCO[C@@H](CN(C)C)[C@H](C)CN([C@@H](C)CO)C(=O)c2cc(NC(=O)Nc3ccc(C(F)(F)F)cc3)ccc2O1 | – | – | activation (at 10 µM (top of the series)): 14.3% (inactive)
11 | CCN(CC)Cc1c(O)ccc2cc(-c3nc4ccccc4n3C)c(=O)oc12 | – | 436 nM | –
12 | Cc1cc(=O)oc2c(CN3CCCC3)c(O)c(Cl)cc12 | – | 1400 nM | –
13 | O=c1ccc2cc(OC3O[C@H](CO)[C@@H](O)[C@H](O)[C@H]3O)c(O)cc2o1 (some centres undefined) | – | 857 nM | –
14 | CCCN(C)C[C@@H]1OCCCC[C@@H](C)Oc2ccc(NS(=O)(=O)c3ccccc3)cc2C(=O)N([C@H](C)CO)C[C@@H]1C | 16% (inactive) | – | –
15 | O=C(NCC1CC1)[C@H]1[C@H](CO)[C@H]2Cn3c(ccc(/C=C/c4ccccc4)c3=O)[C@@H]1N2C(=O)C1CC1 | – | 1770 nM | –
16 | C/C(=N\NC(=O)CC#N)c1cc2ccc(O)cc2oc1=O | – | 2300 nM | –
17 | C[C@@H]1CCCCO[C@H](CN(C)Cc2ccc(C(=O)O)cc2)[C@H](C)CN([C@@H](C)CO)C(=O)c2cc(NC(=O)Nc3ccc(C(F)(F)F)cc3)ccc2O1 | 11.3% (inactive) | – | –
18 | C[C@@H]1CCCCO[C@@H](CN(C)Cc2ccc(C(=O)O)cc2)[C@H](C)CN([C@@H](C)CO)C(=O)c2cc(NS(=O)(=O)c3ccc(Cl)cc3)ccc2O1 | 24.2% (inactive) | – | –
19 | CCN1[C@@H]2c3ccc(/C=C/c4ccccc4)c(=O)n3C[C@H]1[C@H](CO)[C@H]2C(=O)N1CCOCC1 | – | 3520 nM | –
20 | CCc1c(C)c2cc(Cl)c(O)c(CN(CC)CC)c2oc1=O | – | 1170 nM | –
21 | O=c1ccc2cc(O[C@@H]3O[C@@H](CO)[C@H](O)[C@@H](O)[C@@H]3O)c(O)cc2o1 | – | 744 nM | –
22 | Cc1cc(=O)oc2cc(NS(=O)(=O)c3ccc(F)cc3)ccc12 | – | 2110 nM | –
23 | CCC(=O)N1[C@@H]2c3ccc(/C=C/c4ccccc4)c(=O)n3C[C@H]1[C@H](CO)[C@H]2C(=O)N(C)C | – | 1690 nM | –
24 | CN(C)Cc1c(O)ccc2cc(-c3nc4ccccc4n3C)c(=O)oc12 | – | 445 nM | –
25 | Cc1cc(=O)oc2c(CN3CCCCC3)c(O)ccc12 | – | 1920 nM | –

Row | Structure (SMILES) | activation (at 11 µM (top of the series)) | AC200 | other results
26 | COc1ccc(CN(C)C[C@H]2OCCCC[C@@H](C)Oc3ccc(NS(=O)(=O)c4cccs4)cc3C(=O)N([C@@H](C)CO)C[C@@H]2C)cc1 | 10.1% (inactive) | – | –
27 | CCCN(C)C[C@@H]1OCCCC[C@@H](C)Oc2ccc(NS(=O)(=O)c3ccc(F)cc3)cc2C(=O)N([C@H](C)CO)C[C@@H]1C | 10.6% (inactive) | – | –
28 | O=c1cc(CN2CCOCC2)c2cc(Cl)c(O)cc2o1 | – | 2510 nM | –
29 | CCc1cc(=O)oc2c(CN3CCN(C)CC3)c(O)ccc12 | – | 3170 nM | –
30 | COCC(=O)N1[C@@H]2c3ccc(/C=C/c4ccccc4)c(=O)n3C[C@H]1[C@H](CO)[C@H]2C(=O)N1CCOCC1 | – | 1500 nM | –
31 | COc1cc2ccc(=O)oc2cc1O | – | 678 nM | –
32 | CC(=O)N1[C@@H]2Cn3c(ccc(/C=C/c4ccccc4)c3=O)[C@H]1[C@@H](C(=O)NCC1CC1)[C@@H]2CO | – | 2500 nM | –
33 | Cc1c(-c2ccccc2)c(=O)oc2cc(O)ccc12 | – | 2340 nM | –
34 | COC(=O)[C@@H]1[C@@H](CO)[C@@H]2Cn3c(ccc(/C=C/c4ccccc4)c3=O)[C@H]1N2C(=O)C1CCC1 | – | 2170 nM | –
35 | CCN(CCCl)c1cc(CN(C)C)cc(NC(=O)c2ccc(C(=O)Nc3cc(CN(C)C)cc(N(CC)CCCl)c3)cc2)c1 | -8.9% (inactive) | – | –
36 | CC(=O)N1[C@@H]2c3ccc(/C=C/c4ccccc4)c(=O)n3C[C@H]1[C@H](CO)[C@H]2C(=O)N(C)C | – | 1570 nM | –
37 | CCCN(C)C[C@@H]1OCCCC[C@H](C)Oc2ccc(NC(=O)Nc3ccc(F)cc3)cc2C(=O)N([C@H](C)CO)C[C@@H]1C | 10.8% (inactive) | – | –
38 | COC(=O)Cc1c(C)c2ccc(O)c(CNCc3ccc(OC)c(OC)c3)c2oc1=O | – | 1010 nM | –
39 | CN1CCCC1CCNc1ccc2c(=O)c3ccccc3oc2c1 (centres undefined) | – | 1140 nM | –
40 | COC(=O)[C@H]1[C@H](CO)[C@H]2Cn3c(ccc(-c4ccncc4)c3=O)[C@H]2N1Cc1ccccc1F | 15.2% (inactive) | – | –
41 | C[C@@H]1CCCCO[C@@H](CN(C)CC2CCCCC2)[C@H](C)CN([C@@H](C)CO)C(=O)c2cc(NC(=O)Nc3ccccc3)ccc2O1 | 12.1% (inactive) | – | –
42 | C[C@@H]1CCCCO[C@@H](CN(C)Cc2ccc3c(c2)OCO3)[C@@H](C)CN([C@@H](C)CO)C(=O)c2cc(NS(=O)(=O)c3ccccc3)ccc2O1 | – | – | activation (at 5.6 µM (top of the series)): 12.7% (inactive)
43 | COc1ccc(S(=O)(=O)N(C)C[C@@H]2Oc3ncccc3C(=O)N([C@H](C)CO)C[C@@H]2C)cc1 | – | – | activation (at 5.6 µM (top of the series)): 11.3% (inactive)
44 | COc1ccc(CN(C)C[C@H]2OCCCC[C@@H](C)Oc3ccc(NS(=O)(=O)c4cccs4)cc3C(=O)N([C@@H](C)CO)C[C@H]2C)cc1 | 2.79% (inactive) | – | –
45 | O=c1ccc2cc(O)c(O)cc2o1 | – | 3270 nM | –
46 | CCCN(C)C[C@@H]1OCCCC[C@@H](C)Oc2ccc(NS(=O)(=O)c3c(C)noc3C)cc2C(=O)N([C@H](C)CO)C[C@@H]1C | – | – | activation (at 10 µM (top of the series)): -3.16% (inactive)
47 | CCCCc1cc(=O)oc2cc(O)ccc12 | – | 3980 nM | –
48 | Cc1ccc(-c2cc(C(=O)N3CCCC3)c3ccccc3n2)s1 | – | > 11000 nM (inactive) | –
49 | CCNC(=O)[C@@H]1[C@@H](CO)[C@@H]2Cn3c(ccc(/C=C/c4ccccc4)c3=O)[C@H]1N2C(=O)C1CCCC1 | – | 1590 nM | –
50 | COc1ccc(S(=O)(=O)Nc2ccc3c(c2)C(=O)N([C@@H](C)CO)C[C@H](C)[C@H](CN(C)C)OCCCC[C@@H](C)O3)cc1 | 5.02% (inactive) | – | –

Row | Structure (SMILES) | activation (at 11 µM (top of the series)) | AC200 | other results
51 | CO[C@@H]1CN(C)C(=O)c2ccc(NC(=O)Nc3cccc(Cl)c3)cc2OC[C@@H](C)NC[C@H]1C | 3.9% (inactive) | – | –
52 | COc1ccc(NC(=O)Nc2ccc3c(c2)C(=O)N([C@H](C)CO)C[C@@H](C)[C@H](CN(C)Cc2ccc(C(=O)O)cc2)OCCCC[C@@H](C)O3)cc1 | 12.3% (inactive) | – | –
53 | C[C@@H]1CCCCO[C@@H](CN(C)C)[C@@H](C)CN([C@@H](C)CO)C(=O)c2cc(NS(=O)(=O)c3ccc(Cl)cc3)ccc2O1 | 2.17% (inactive) | – | –
54 | COc1ccc(NC(=O)Nc2ccc3c(c2)C(=O)N([C@H](C)CO)C[C@@H](C)[C@@H](CN(C)Cc2ccc(C(=O)O)cc2)OCCCC[C@@H](C)O3)cc1 | 2.96% (inactive) | – | –
55 | C[C@H](CO)N1C[C@H](C)[C@H](CN(C)Cc2ccc(C(=O)O)cc2)Oc2c(NC(=O)Nc3ccccc3)cccc2C1=O | 22.8% (inactive) | – | –
56 | COCC(=O)N1[C@@H]2Cn3c(ccc(/C=C/c4ccccc4)c3=O)[C@H]1[C@@H](C(=O)N1CCOCC1)[C@@H]2CO | – | 1550 nM | –
57 | N#Cc1c(N)n(CCNC(=O)c2ccccc2)c2nc3ccccc3nc12 | – | 4630 nM | –
58 | C[C@@H]1CN([C@H](C)CO)C(=O)c2cc(NC(=O)Nc3ccc(F)cc3)ccc2O[C@H]1CN(C)Cc1ccc(C(=O)O)cc1 | 1.24% (inactive) | – | –
59 | C[C@@H]1CCCCO[C@H](CN(C)Cc2ccc(C(=O)O)cc2)[C@@H](C)CN([C@H](C)CO)C(=O)c2cc(NC(=O)Nc3ccc(C(F)(F)F)cc3)ccc2O1 | 2.62% (inactive) | – | –
60 | CCN(CC)c1ccc2c(C)c(Cl)c(=O)oc2c1 | – | 1420 nM | –
61 | N#Cc1c(N2CCNCC2)nc(-c2ccco2)c2c1CCCC2 | 31.3% (inactive) | – | –
62 | Cc1c(CC(=O)N2CCN(C(=O)C3COc4ccccc4O3)CC2)c(=O)oc2cc(O)c(Cl)cc12 (centres undefined) | – | 1520 nM | –
63 | Cc1noc(C)c1NC(=O)N(C)C[C@@H]1Oc2c(NC(=O)Nc3ccc(F)cc3)cccc2C(=O)N([C@H](C)CO)C[C@@H]1C | 18.4% (inactive) | – | –
64 | C[C@@H]1CCCCO[C@@H](CN(C)CC2CC2)[C@@H](C)CN([C@H](C)CO)C(=O)c2cc(NS(=O)(=O)c3cccs3)ccc2O1 | 14.7% (inactive) | – | –
65 | O=c1oc2c(CN3CCN(CCO)CC3)c(O)ccc2cc1-c1ccccn1 | – | 606 nM | –
66 | O=C(NCc1ccccn1)[C@@H]1[C@@H](CO)[C@@H]2Cn3c(ccc(/C=C/c4ccccc4)c3=O)[C@H]1N2CC1CC1 | – | 2270 nM | –
67 | Cc1ccccc1-c1ccc2c(c1)O[C@@H](CN(C)Cc1ccc(C(=O)O)cc1)[C@@H](C)CN([C@H](C)CO)S2(=O)=O | 8.67% (inactive) | – | –
68 | Cc1c(C)c2ccc(O)c(CN3CCN(C)CC3)c2oc1=O | – | 3430 nM | –
69 | Cc1noc(C)c1S(=O)(=O)Nc1ccc2c(c1)C(=O)N([C@H](C)CO)C[C@H](C)[C@H](CN(C)Cc1ccc3c(c1)OCO3)OCCCC[C@@H](C)O2 | – | – | activation (at 10 µM (top of the series)): 11.2% (inactive)
70 | Cc1cc(=O)oc2c(CN3CCN(C)CC3)c(O)c(Cl)cc12 | 12% (inactive) | – | –
71 | Cc1cc(=O)oc2cc(OCC(=O)N3CCN(C(C)c4ccccc4)CC3)c(Cl)cc12 (centres undefined) | – | 3960 nM | –
72 | C[C@@H]1CCCCO[C@H](CN(C)C)[C@H](C)CN([C@H](C)CO)C(=O)c2cc(NS(=O)(=O)c3ccc(Cl)cc3)ccc2O1 | 16.7% (inactive) | – | –
73 | CCN1CCN(Cc2c(O)ccc3c(C)cc(=O)oc23)CC1 | – | 3230 nM | –
74 | O=C(O)c1cccc(NC(=O)c2ccccc2NC(=O)c2cccc([N+](=O)[O-])c2)c1 | 15.7% (inactive) | – | –
